Measurements taken from US10640457B2, “Histone acetyltransferase activators and uses thereof” (The Trustees of Columbia University in the City of New York, priority 2009, dated 2020).

What was measured:
[1] = literature [22, 23]; cited from earlier work
Solubility observations = assay type: physicochemical
[2] = literature [22, 23]; cited from earlier work; remark: listed apart in the source
Sirtuin 2 = target: T1, Sirtuin 2 (Homo sapiens, UniProt Q8IXJ6); assay: Sirtuin 2 fluorogenic activity assay
T1 sequence (Q8IXJ6 1-389): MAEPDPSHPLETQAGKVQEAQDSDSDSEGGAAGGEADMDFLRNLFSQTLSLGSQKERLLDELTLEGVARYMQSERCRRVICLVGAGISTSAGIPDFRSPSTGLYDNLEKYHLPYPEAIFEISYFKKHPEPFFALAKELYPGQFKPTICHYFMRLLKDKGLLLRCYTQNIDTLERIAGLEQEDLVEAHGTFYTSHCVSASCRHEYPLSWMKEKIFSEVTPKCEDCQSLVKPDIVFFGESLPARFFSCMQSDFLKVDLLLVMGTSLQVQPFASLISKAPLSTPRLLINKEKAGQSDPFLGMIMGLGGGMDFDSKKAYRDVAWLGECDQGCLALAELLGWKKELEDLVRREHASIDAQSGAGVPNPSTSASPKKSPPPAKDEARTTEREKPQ

Sirtuin 1 = target: T2, Sirtuin 1 (Homo sapiens, UniProt Q96EB6); assay: Sirtuin 1 fluorogenic activity assay
T2 sequence (Q96EB6 1-747): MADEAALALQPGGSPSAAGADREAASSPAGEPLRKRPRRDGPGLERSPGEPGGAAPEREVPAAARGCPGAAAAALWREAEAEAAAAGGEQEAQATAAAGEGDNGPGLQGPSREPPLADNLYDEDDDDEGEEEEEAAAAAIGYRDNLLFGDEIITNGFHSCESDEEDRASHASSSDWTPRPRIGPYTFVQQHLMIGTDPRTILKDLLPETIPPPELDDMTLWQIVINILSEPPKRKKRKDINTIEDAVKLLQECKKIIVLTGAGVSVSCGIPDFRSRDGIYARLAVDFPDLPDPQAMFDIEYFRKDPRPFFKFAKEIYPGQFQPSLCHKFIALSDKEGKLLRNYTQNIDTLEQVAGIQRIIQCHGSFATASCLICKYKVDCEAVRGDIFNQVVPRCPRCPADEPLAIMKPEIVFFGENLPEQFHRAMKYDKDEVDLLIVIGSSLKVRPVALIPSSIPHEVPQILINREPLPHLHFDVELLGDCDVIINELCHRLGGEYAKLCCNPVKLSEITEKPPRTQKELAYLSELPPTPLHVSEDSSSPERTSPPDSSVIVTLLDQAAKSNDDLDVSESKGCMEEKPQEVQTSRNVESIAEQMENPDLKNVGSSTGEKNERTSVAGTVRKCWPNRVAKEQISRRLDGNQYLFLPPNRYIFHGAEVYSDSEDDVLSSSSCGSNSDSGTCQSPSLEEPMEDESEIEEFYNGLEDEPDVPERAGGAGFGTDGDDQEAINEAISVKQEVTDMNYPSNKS

[3] = literature [P48]; cited from earlier work

SMILES	solubility [1]	membrane permeability [2]	further results
CCOc1ccccc1C(=O)Nc1ccc(Cl)c(C(F)(F)F)c1 [6J, N-(4-chloro-3-trifluoromethyl-phenyl)-2-ethoxy-benzamide]	insoluble	membrane-impermeable	solubility in H2O (Solubility observations): no solubility
CCCCCCCCCCCCCCCc1cccc(OCC)c1C(=O)Nc1ccc(Cl)c(C(F)(F)F)c1 [CTPB]	insoluble	membrane-impermeable	
O=C(CCCCCCC(=O)Nc1ccccc1)NO [SAHA, reference compound]			IC50 (Sirtuin 2): > 10 µM; IC50 (Sirtuin 1): > 10 µM
Cc1cc(-c2ccccc2)nnc1NCCN1CCOCC1 [minaprine]			brain/blood ratio [3]: > 2
